What all share (format): biochemical
Test [1] can be described thus: PPi release assay, adenylation activity with D-phenylglycine. The conditions noted are these: for Formed PPi: substrate D-PG 1 mM. The source says:
(§1) These assays use inorganic pyrophosphatases to convert PPi produced during aminoacyl-AMP formation to orthophosphate (Pi). To measure Pi concentrations some of these assays use molybdate/malachite green reagent for colorimetric detection (McQuade et al. 2008) or, as used in the context of the present invention, a shift in absorbance maximum by conversion of 7-methyl-6-thioguanosine (MESG) by purine nucleoside phosphorylase (Ehmann D. E. et al. (Proc. Natl. Acad. Sci. (2000) 97, 2509-2514) or Daniel & Aldrich (Anal. Biochem. (2010) 404, 56-63)).
(§2) To determine the adenylation activity of the adenylation domains, the Enzchek® pyrophosphate assay kit (Life Technologies) was used as described by Ehmann D. E. et al. (Proc Nat Acad Science (2000) 97, 2509-2514) with small modifications. The reactions were performed 96 wells UV/Vis transparent plates (BD Falcon). The reaction mixture comprises 50 mM HEPES pH 8.0, 10 mM MgCl2, 5 mM ATP, 75 mM DTT, 0.03 U Inorganic Pyrophosphatase (IP), 1 U Purine Nucleoside Phosphorylase (PNP) and 0.2 mM MESG in a volume of 70 μl. Next 20 μl (around 0.5-2 μM final concentration) of purified A(T) domain, with or without co-purification of the MbtH like helper protein was added and the reaction was pre-incubated for 15 minutes at RT to reduce contaminating Pi. Following the pre-incubation, 10 μl of a 10 mM or 1 mM solution of the appropriate amino acid depending on the performed specificity determination was added to initiate the adenylation reaction and the absorbance at 360 nm was measured using a TECAN I Control spectrophotometer. Absorbance measurements were made every 5 to 10 min over a period of up to 240 min. A reaction with addition of 10 μl MilliQ water instead was used to determine and subtract the background absorbance. As substrates the following amino acids were used: D- or L-phenylalanine, D- or L-hydroxyphenylglycine, D- or L-phenylglycine, L-tryptophan, L-valine, L-cysteine, and L-leucine.

Test [2] in a line: PPi release assay, adenylation activity with D-phenylalanine. The following applies: substrate D-phenylalanine.
Description: as §1, §2

A short description of test [3]: PPi release assay, adenylation activity with L-phenylglycine. The conditions noted are these: for Formed PPi: substrate L-PG 1 mM.
Description: as §1, §2

Test [4] is described as follows: PPi release assay, adenylation activity with L-hydroxyphenylglycine. The following applies: for adenylation activity (absorption 360 nm, PPi release assay) / adenylation activity (PPi release assay): substrate L-hydroxyphenylglycine.
Description: as §1, §2

Test [5] in a line: PPi release assay, adenylation activity with L-phenylalanine. The conditions noted are these: substrate L-phenylalanine.
Description: as §1, §2

Test [6] in a line: PPi release assay, adenylation activity with D-hydroxyphenylglycine.
Description: as §1, §2

Where [7] appears, read: co-purified with MbtH-like protein Tcp 13.
Where [8] appears, read: co-purified with MbtH-like protein Tcp 17.
Setting [9] is: co-purified with MbtH-like protein VMbtH.
[10] abbreviates: co-purified with MbtH-like protein Tcp13.
[11] abbreviates: protein alone, without MbtH-like protein.
[12] abbreviates: substrate D-hydroxyphenylglycine, protein alone, without MbtH-like protein.
Where [13] appears, read: co-purified with Tcp13, or Tcp17 or VMbtH.

Regarding “Tcp11_M1_A: purified adenylation domain of Tcp11 module M1 (SEQ ID NO: 7), maltose binding protein fusion, His-tag; Actinoplanes teichomyceticus”, the “Formed PPi” value in test [1] (setting [7]) was 0 mM/min/mM enzyme; in test [1] (setting [8]), 0.04 mM/min/mM enzyme; in test [1] (setting [9]), 0 mM/min/mM enzyme; in test [3] (setting [7]), 0.17 mM/min/mM enzyme; in test [3] (setting [8]), 0.23 mM/min/mM enzyme; in test [3] (setting [9]), 0.09 mM/min/mM enzyme. Also, the “Formed PPi” value in test [4] (substrate L-HPG 0.1 mM, co-purified with MbtH-like protein Tcp 13) is 0.80 mM/min/mM enzyme; in test [4] (substrate L-HPG 0.1 mM, co-purified with MbtH-like protein Tcp 17), 0.95 mM/min/mM enzyme; in test [4] (substrate L-HPG 0.1 mM, co-purified with MbtH-like protein VMbtH) it was 1.38 mM/min/mM enzyme; in test [4] (substrate L-HPG 1 mM, co-purified with MbtH-like protein Tcp 13), 1.03 mM/min/mM enzyme; in test [4] (substrate L-HPG 1 mM, co-purified with MbtH-like protein Tcp 17), 1.04 mM/min/mM enzyme; in test [4] (substrate L-HPG 1 mM, co-purified with MbtH-like protein VMbtH) it was 1.54 mM/min/mM enzyme. For the same substance, the “Formed PPi” value in test [6] (substrate D-HPG 0.1 mM, co-purified with MbtH-like protein Tcp 13) is 0.08 mM/min/mM enzyme; in test [6] (substrate D-HPG 0.1 mM, co-purified with MbtH-like protein Tcp 17) it was 0.11 mM/min/mM enzyme; in test [6] (substrate D-HPG 0.1 mM, co-purified with MbtH-like protein VMbtH), 0 mM/min/mM enzyme; in test [6] (substrate D-HPG 1 mM, co-purified with MbtH-like protein Tcp 13), 0.66 mM/min/mM enzyme; in test [6] (substrate D-HPG 1 mM, co-purified with MbtH-like protein Tcp 17) it was 0.63 mM/min/mM enzyme; in test [6] (substrate D-HPG 1 mM, co-purified with MbtH-like protein VMbtH), 0.86 mM/min/mM enzyme. Also, the “adenylation activity (absorption 360 nm, PPi release assay)” value in test [2] (setting [10]) is on record as “no activity”; in test [2] (setting [11]), “No adenylation activity”; in test [4] (setting [10]), “clear adenylation activity”; in test [4] (setting [11]), “No adenylation activity”; in test [5] (setting [10]), “no activity”; in test [5] (setting [11]) it was “No adenylation activity”. Also, the “adenylation activity (absorption 360 nm, PPi release assay)” value is listed as “clear adenylation activity” in test [6] (substrate D-hydroxyphenylglycine, co-purified with MbtH-like protein Tcp13) and “No adenylation activity” in test [6] (setting [12]).

With “BpsB_M1_A: purified adenylation domain of BpsB module M1 (SEQ ID NO: 26); Amycolatopsis balhimycina”, the “adenylation activity (PPi release assay)” value in test [1] (substrate D-phenylglycine, co-purified with Tcp13, or Tcp17 or VMbtH) is reported as “no adenylation activity”; in test [2] (setting [13]), “no adenylation activity”; in test [3] (substrate L-phenylglycine, co-purified with Tcp13, or Tcp17 or VMbtH), “no adenylation activity”; in test [4] (co-purified with MbtH-like protein BMbtH), “confirmed its activity”; in test [4] (setting [13]), “no adenylation activity”; in test [5] (setting [13]), “no adenylation activity”. The “adenylation activity (PPi release assay)” value in test [6] (substrate D-hydroxyphenylglycine, co-purified with Tcp13, or Tcp17 or VMbtH) is “no adenylation activity”. The “adenylation activity (absorption 360 nm, PPi release assay)” value in test [2] (setting [11]), in test [4] (setting [11]), in test [5] (setting [11]) and in test [6] (setting [12]) was “No adenylation activity” throughout.

For the origin of these results see patent US20140349340A1, “MBTH-LIKE PROTEINS IN THE PRODUCTION OF SEMI SYNTHETIC ANTIBIOTICS” (DSM SINOCHEM PHARMACEUTICALS NETHERLANDS B.V., priority 2012, published 2014).
